The values that follow come from patent US10138212B2, “Aminoquinazoline compounds as A2A antagonist” (Merck Sharp & Dohme Corp., priority 2015, dated 2018).

One assay addresses human A2a receptor (Homo sapiens (Human), UniProt P29274). The experiment in a line: A2a competition binding assay using Scintillation Proximity technology. The method, boiled down:
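Membranes (0.25 or 1 μg) from HEK293 expressing the receptor were pretreated with adenosine deaminase and bound to WGA-coated yttrium silicate SPA beads. They were incubated 1 h at room temperature with compound at 3000–0.15 nM and 0.5 nM tritiated pyrazolotriazolopyrimidine ligand in Ca/Mg-free DPBS with 10 mM MgCl2. Ki was derived from […] by Cheng-Prusoff.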
In general terms: In a scintillation proximity assay essentially only radioactivity close to the scintillant gives light.

The next assay concerns the target human A1 receptor (Homo sapiens (Human), UniProt P30542). The experiment in a line: A1 competition binding assay using Scintillation Proximity technology; selectivity = A1 binding Ki / A2a binding Ki. As to conditions: A1 binding Ki divided by A2a binding Ki. The method, boiled down:
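SPA competition using 5 ug membranes from CHO-K1 cells expressing human A1, pretreated with adenosine deaminase. Radioligand was 0.7 nM [3H]DPCPX (final), with compound at 3000–0.15 nM in DPBS + 10 mM MgCl2. Incubation was 1 h at room temperature. Non-specific binding was defined with 1 uM DPCPX, and Ki was derived as for A2a.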

The mark [1] stands for this setting: * assay run with 1 μg of membranes versus 0.25 μg, HEK293 cells expressing the human A2a receptor.
Where [2] appears, read: 0.25 μg of membranes from HEK293 cells expressing the human A2a receptor.

Chain of human A1 receptor (P30542 whole entry): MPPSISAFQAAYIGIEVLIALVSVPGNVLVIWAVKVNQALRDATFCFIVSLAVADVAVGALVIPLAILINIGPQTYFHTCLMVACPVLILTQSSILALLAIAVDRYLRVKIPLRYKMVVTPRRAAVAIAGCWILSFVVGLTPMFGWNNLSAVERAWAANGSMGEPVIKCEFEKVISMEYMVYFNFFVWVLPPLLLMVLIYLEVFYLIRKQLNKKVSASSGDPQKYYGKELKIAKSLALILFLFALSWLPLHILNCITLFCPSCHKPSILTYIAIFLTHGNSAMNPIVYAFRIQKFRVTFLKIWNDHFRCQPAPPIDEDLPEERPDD
Chain of human A2a receptor (P29274 whole entry): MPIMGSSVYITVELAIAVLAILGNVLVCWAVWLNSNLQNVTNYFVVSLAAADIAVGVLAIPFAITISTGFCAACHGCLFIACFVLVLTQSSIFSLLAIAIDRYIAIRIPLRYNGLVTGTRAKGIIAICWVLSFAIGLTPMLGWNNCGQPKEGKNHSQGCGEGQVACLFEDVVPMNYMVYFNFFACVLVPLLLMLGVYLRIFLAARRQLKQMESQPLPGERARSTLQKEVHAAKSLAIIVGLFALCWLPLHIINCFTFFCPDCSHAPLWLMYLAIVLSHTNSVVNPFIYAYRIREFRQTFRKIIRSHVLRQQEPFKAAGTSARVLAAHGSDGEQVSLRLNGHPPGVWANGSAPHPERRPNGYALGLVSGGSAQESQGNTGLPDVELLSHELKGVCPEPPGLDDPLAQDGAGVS

`[2H]C([2H])(NC(=O)c1nc(N)nc2c(OC)cccc12)c1cccc(C([2H])([2H])c2cncc(-c3ncco3)c2)n1` [Example 108, 2-amino-N-[dideuterio-[6-[dideuterio-(5-oxazol-2-yl-3-pyridyl)methyl]-2-pyridyl]methyl]-8-methoxy-quinazoline-4-carboxamide] displayed a Ki on human A2a receptor (setting [1]) of 2.1 nM. In addition, the “A2a selectivity (A2a A1 binding selectivity)” value (from here on “A2a selectivity”) at human A1 receptor was 77.
Molecule `Nc1nc(C(=O)NCc2cccc(Cc3ccccc3F)n2)c2cccc(F)c2n1` [Example 111, 2-amino-8-fluoro-N-[[6-[(2-fluorophenyl)methyl]-2-pyridyl]methyl]quinazoline-4-carboxamide] had a Ki at human A2a receptor (setting [1]) of 1.3 nM. Also, at human A1 receptor, the “A2a selectivity” value is reported as 28.
In turn, `COc1cccnc1CNC(=O)c1nc(N)nc2c(OC)cccc12` [Example 23, 2-amino-8-methoxy-N-[(3-methoxy-2-pyridyl)methyl]quinazoline-4-carboxamide] returned a Ki on human A2a receptor (setting [2]) of 3 nM. On human A1 receptor, the “A2a selectivity” value is 110.
On the same counts, the results for `COc1cccc2c(C(=O)NCc3cccc(C4CC4)n3)nc(N)nc12` [Example 7, 2-amino-N-[(6-cyclopropyl-2-pyridyl)methyl]-8-methoxy-quinazoline-4-carboxamide] are 0.3 nM and 169.
On the same counts, the results for `COc1cccc2c(C(=O)NCc3cccc(C(C)C)n3)nc(N)nc12` [Example 5, 2-amino-N-[(6-isopropyl-2-pyridyl)methyl]-8-methoxy-quinazoline-4-carboxamide] are 0.2 nM and 146.
As to `COC(=O)c1cccc(CNC(=O)c2nc(N)nc3c(F)cccc23)n1` [Example 75, methyl 6-[[(2-amino-8-fluoro-quinazoline-4-carbonyl)amino]methyl]pyridine-2-carboxylate], the affinity at human A2a receptor (setting [1]) corresponds to a Ki of 23 nM. Moreover, the “A2a selectivity” value at human A1 receptor was found to be 14.
For `[2H]C([2H])(NC(=O)c1nc(N)nc2c(OC)cccc12)c1cccc(C([2H])([2H])c2ccc(C(C)(C)OCOC)nc2)n1` [Example 109, 2-amino-N-[dideuterio-[6-[dideuterio-[6-[1-(methoxymethoxy)-1-methyl-ethyl]-3-pyridyl]methyl]-2-pyridyl]methyl]-8-methoxy-quinazoline-4-carboxamide], in that order: 2.3 nM and 120.
Turning to `CS(=O)(=O)c1cccc2c(C(=O)NCc3cccc4cccnc34)nc(N)nc12` [Example 95, 2-amino-8-methylsulfonyl-N-(8-quinolylmethyl)quinazoline-4-carboxamide], the affinity on human A2a receptor (setting [2]), expressed as Ki, was 86 nM. Besides, the “A2a selectivity” value on human A1 receptor was found to be 55.
On to `COc1cccc2c(C(=O)NCc3ccccc3-c3ccccn3)nc(N)nc12` [Example 43, 2-amino-8-methoxy-N-[[2-(2-pyridyl)phenyl]methyl]quinazoline-4-carboxamide], for which the affinity on human A2a receptor (setting [1]), expressed as Ki, was 2.3 nM. For the same molecule, at human A1 receptor, the “A2a selectivity” value was 84.
Regarding `Nc1nc(C(=O)NCc2cccc(-c3ccccn3)n2)c2cccc(F)c2n1` [Example 63, 2-amino-8-fluoro-N-[[6-(2-pyridyl)-2-pyridyl]methyl]quinazoline-4-carboxamide], at human A2a receptor (setting [2]), the affinity, expressed as Ki, was 0.8 nM. The “A2a selectivity” value on human A1 receptor stood at 59.
Molecule `[2H]C([2H])(NC(=O)c1nc(N)nc2c(OC)cccc12)c1cccc(Oc2cncc(OC)c2)n1` [Example 58, 2-amino-N-[dideuterio-[6-[(5-methoxy-3-pyridyl)oxy]-2-pyridyl]methyl]-8-methoxy-quinazoline-4-carboxamide] returned a Ki at human A2a receptor (setting [1]) of 5 nM. The “A2a selectivity” value on human A1 receptor is 16.
With `COc1cccc2c(C(=O)N[C@@H](CO)c3ccc4ccccc4n3)nc(N)nc12` [Example 37, 2-amino-N-[(1R)-2-hydroxy-1-(2-quinolyl)ethyl]-8-methoxy-quinazoline-4-carboxamide], the Ki at human A2a receptor (setting [2]) came out at 8.3 nM. Further, the “A2a selectivity” value on human A1 receptor is 32.
For `COc1cccc2c(C(=O)NCc3cccc(C)c3)nc(N)nc12` [Example 17, 2-amino-8-methoxy-N-(m-tolylmethyl)quinazoline-4-carboxamide], in that order: 0.4 nM and 184.
On the same counts, the results for `Nc1nc(C(=O)NCc2cccc3c2OCCN3)c2cccc(F)c2n1` [Example 84, 2-amino-N-(3,4-dihydro-2H-1,4-benzoxazin-8-ylmethyl)-8-fluoro-quinazoline-4-carboxamide] are 5.3 nM and 25.
For `COc1cccc2c(C(=O)NCc3cccc(COCC(C)C)n3)nc(N)nc12` [Example 51, 2-amino-N-[[6-(isobutoxymethyl)-2-pyridyl]methyl]-8-methoxy-quinazoline-4-carboxamide], in that order: 1.9 nM and 90.
Molecule `CCn1cccc(CNC(=O)c2nc(N)nc3c(OC)cccc23)c1=O` [Example 13, 2-amino-N-[(1-ethyl-2-oxo-3-pyridyl)methyl]-8-methoxy-quinazoline-4-carboxamide] came in with a Ki at human A2a receptor (setting [2]) of 0.2 nM. For the same molecule, the “A2a selectivity” value at human A1 receptor is 112.
For `Nc1nc(C(=O)NCc2cccc(Cc3ccncc3)n2)c2cccc(F)c2n1` [Example 112, 2-amino-8-fluoro-N-[[6-(4-pyridylmethyl)-2-pyridyl]methyl]quinazoline-4-carboxamide], in that order: 1.6 nM and 31.
On the same counts, the results for `COc1cccc2c(C(=O)NCc3cccc4cccnc34)nc(N)nc12` [Example 12, 2-amino-8-methoxy-N-(8-quinolylmethyl)quinazoline-4-carboxamide] are 0.2 nM and 32.
Turning to `Nc1nc(C(=O)NCc2cccc3cccnc23)c2cccc(Br)c2n1` [Example 96, 2-amino-8-bromo-N-(8-quinolylmethyl)quinazoline-4-carboxamide], on human A2a receptor (setting [1]), the inhibitory constant (Ki) was 0.7 nM. In addition, the “A2a selectivity” value on human A1 receptor amounted to 12.
The molecule `COc1cccc2c(C(=O)NCc3cccc(CO[C@H]4CCOC4)n3)nc(N)nc12` [Example 52, 2-amino-8-methoxy-N-[[6-[[(3S)-tetrahydrofuran-3-yl]oxymethyl]-2-pyridyl]methyl]quinazoline-4-carboxamide] gave a Ki at human A2a receptor (setting [2]) of 1.1 nM. The “A2a selectivity” value at human A1 receptor was determined as 140.
For `C[C@@H](NC(=O)c1nc(N)nc2c(F)cccc12)c1cccc2cccnc12` [Example 88, 2-amino-8-fluoro-N-[(1R)-1-(8-quinolyl)ethyl]quinazoline-4-carboxamide], in that order: 6.7 nM and 8.
On the same counts, the results for `Nc1nc(C(=O)NCc2ncccn2)c2cccc(I)c2n1` [Example 99, 2-amino-8-iodo-N-(pyrimidin-2-ylmethyl)quinazoline-4-carboxamide] are 229 nM and 8.

As a reminder, the Ki is the dissociation constant of the complex between target and ligand, obtained from inhibition or displacement.
